# Laboratory results as given in US20260158015A1 (Universite De Bordeaux, priority 2021, published 2026).
# Key:
# [1] = test system: lentiviral vectors pseudotyped with the SARS-CoV-2 Spike protein (CoV-2 LV); assay: microbe, parasite or virus in culture; assay type: cell-based
# VSVg pseudotyped LV = assay type: cell-based
# [2] = MTT cytotoxicity (CC50) in 293-ACE2 cells; assay type: cell-based; conditions: human, four-parameter sigmoidal fit, unit inferred
# Description: (§1) MTT cell viability assay was performed following furnisher protocols. Cells were seeded at the density of 20,000 cells/well in a 96 well plate containing 100 μL complete DMEM (Gibco, USA) supplemented with 10% FBS (Gibco, USA) and 1% Penstrep (Gibco, USA). Cells were incubated for 12 hours at 37° C. in humidified 5% CO2 incubator for adherence. After 12-hour incubation, the media was replaced with fresh media, and cells were treated with compounds. Untreated cells were considered as negative control, DMSO treated cells were considered as the vehicles. After the treatment, cells were incubated at 37° C. in humidified 5% CO2 incubator. 48-hour post-treatment, 20 μL of MTT substrate (5 mg/mL) was added in each well and incubated for 4 additional hours at 37° C. in the dark. The media was then carefully removed, and 492 nm absorbance was measured.
# [3] = MTT cytotoxicity (CC50) in A549-ACE2 cells; assay type: cell-based; conditions: human, A 549-ACE2 cells, four-parameter sigmoidal fit, unit inferred
# Description: as §1
# [4] = MTT cytotoxicity (CC50) in Calu3 cells; assay type: cell-based; conditions: human, four-parameter sigmoidal fit, unit inferred
# Description: as §1
# [5] = test system: SARS-CoV-2 reference strain; assay: SARS-CoV-2 replication in A549-ACE2 cells (viral genome copies, RT-qPCR); assay type: cell-based
# [6] = test system: SARS-CoV-2 reference strain; assay: SARS-CoV-2 replication in Calu3 cells (viral genome copies, RT-qPCR); assay type: cell-based
# SARS-CoV-2 = SARS-CoV-2 inhibition summarised over all the cell lines; assay type: cell-based; conditions: Severe acute respiratory syndrome coronavirus 2
# [7] = test system: HEK-293T, A549, Calu3 and Caco2 cell lines
SMILES,decrease of the viral infectivity (CoV-2 LVs) [1],"IC50 ([1]; Severe acute respiratory syndrome coronavirus 2, 293-ACE2 cells, apparent IC50, unit inferred)",effect on the VSVg LVs infectivity (VSVg pseudotyped LV),CC50 at 48 h [2],CC50 at 48 h [3],CC50 at 48 h [4],comparative efficiency in inhibiting the SARS-CoV-2 replication [5],"IC50 ([5]; Severe acute respiratory syndrome coronavirus 2, A549-ACE2, A 549-ACE2 cells, apparent IC50, unit inferred)","IC50 ([6]; Severe acute respiratory syndrome coronavirus 2, Calu-3, SARS-CoV-2 reference strain, 24 hours, read-out: concentration giving 50% inhibition of the viral replication)","IC50 ([6]; Severe acute respiratory syndrome coronavirus 2, Calu-3, apparent IC50, unit inferred, read-out: IC50)","inhibition at 1 µM (SARS-CoV-2; at 1 μM, pulmonary A549-ACE2 and Calu3 cells, read-out: inhibition of virus replication)",IC50 (SARS-CoV-2; read-out: IC50 among all the cell lines),"cytotoxicity in various cell lines ([7]; various cell lines, no concentration stated)","cytotoxicity (MTT assay) ([7]; within the 0-50 μM range, HEK-293T, A549, Calu3 and Caco2)"
O=S(=O)(c1ccccc1)n1c(-c2cncc(-c3cc4cc(OCc5ccccc5)ccc4n3S(=O)(=O)c3ccccc3)c2)cc2cc(OCc3ccccc3)ccc21 [AB-00011778],40 to 80%,1000 nM,without significant effect,> 50000 nM,> 30000 nM,> 30000 nM,more efficient than the Ritonavir molecule,250 nM,~1000 nM,1000 nM,40 to 60%,250 to 5000 nM,without showing significant cyto-toxicity,no or poor cytotoxicity
"CC(C)c1nc(CN(C)C(=O)N[C@H](C(=O)N[C@@H](Cc2ccccc2)C[C@H](O)[C@H](Cc2ccccc2)NC(=O)OCc2cncs2)C(C)C)cs1 [Ritonavir, reference compound]",,,,,,,AB-00011778 was more efficient than the Ritonavir molecule,,,,,,,
